Assay results: PubChem BioAssay AID248 (DTP/NCI, 2004)
“And” between values parts separate entries of the source, which are not always exact repeats. Equal values may be shown once. Toxic doses and inconclusive results are not listed. No stated cut-off is given here; in the data, active means T/C of 150% or more; inactive means T/C below 125%.

Tested on: L1210 leukemia ip in BDF1 mice, survival T/C
Assay: NCI In Vivo Anticancer Drug Screen. Data for tumor model L1210 Leukemia (intraperitoneal) in B6D2F1 (BDF1) mice
Details: endpoint: mean survival time, higher = longer survival
How it was run: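 Tumor was transplanted into mice, which were then dosed with test compound or vehicle alone. Survival was recorded for each group, and the treated figure was expressed relative to the control figure.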

[1] = dose: 100.0 mg/kg/injection, schedule: Q04DX003 (ip), vehicle: saline
[2] = dose: 200.0 mg/kg/injection, schedule: Q04DX003 (ip), vehicle: saline
[3] = dose: 100.0 mg/kg/injection, schedule: Q01DX001 (ip), vehicle: saline with Tween-80
[4] = dose: 100.0 mg/kg/injection, schedule: Q01DX009 (ip), vehicle: Klucel (hydroxypropylcellulose) (HPC)
[5] = dose: 200.0 mg/kg/injection, schedule: Q01DX001 (ip), vehicle: saline with Tween-80
[6] = dose: 200.0 mg/kg/injection, schedule: Q01DX009 (ip), vehicle: Klucel (hydroxypropylcellulose) (HPC)
[7] = dose: 400.0 mg/kg/injection, schedule: Q01DX001 (ip), vehicle: saline with Tween-80
[8] = dose: 400.0 mg/kg/injection, schedule: Q04DX003 (ip), vehicle: Klucel (hydroxypropylcellulose) (HPC)
[9] = dose: 100.0 mg/kg/injection, schedule: Q04DX003 (ip), vehicle: Klucel (hydroxypropylcellulose) (HPC)
[10] = dose: 200.0 mg/kg/injection, schedule: Q04DX003 (ip), vehicle: Klucel (hydroxypropylcellulose) (HPC)
[11] = dose: 400.0 mg/kg/injection, schedule: Q01DX009 (ip), vehicle: Klucel (hydroxypropylcellulose) (HPC)
[12] = dose: 100.0 mg/kg/injection, schedule: Q01DX001 (ip), vehicle: Klucel (hydroxypropylcellulose) (HPC)
[13] = dose: 200.0 mg/kg/injection, schedule: Q01DX001 (ip), vehicle: Klucel (hydroxypropylcellulose) (HPC)
[14] = dose: 400.0 mg/kg/injection, schedule: Q01DX001 (ip), vehicle: Klucel (hydroxypropylcellulose) (HPC)
[15] = dose: 100.0 mg/kg/injection, schedule: Q01DX001 (ip), vehicle: saline
[16] = dose: 100.0 mg/kg/injection, schedule: Q01DX001 (ip), vehicle: carboxymethylcellulose (CMC)
[17] = dose: 200.0 mg/kg/injection, schedule: Q01DX001 (ip), vehicle: carboxymethylcellulose (CMC)
[18] = dose: 400.0 mg/kg/injection, schedule: Q01DX001 (ip), vehicle: carboxymethylcellulose (CMC)
[19] = dose: 100.0 mg/kg/injection, schedule: Q01DX009 (ip), vehicle: saline with Tween-80
[20] = dose: 100.0 mg/kg/injection, schedule: Q04DX003 (ip), vehicle: saline with Tween-80
[21] = dose: 200.0 mg/kg/injection, schedule: Q01DX009 (ip), vehicle: saline with Tween-80
[22] = dose: 200.0 mg/kg/injection, schedule: Q04DX003 (ip), vehicle: saline with Tween-80
[23] = dose: 400.0 mg/kg/injection, schedule: Q01DX009 (ip), vehicle: saline with Tween-80
[24] = dose: 400.0 mg/kg/injection, schedule: Q04DX003 (ip), vehicle: saline with Tween-80

Measured: T/C

COc1cc2c(c3oc4c(c(=O)c13)CCCC4)CCC(C)(C)O2
inactive: [1] 91 % of control | [2] 94 % of control | dose: 400.0 mg/kg/injection, schedule: Q04DX003 (ip), vehicle: saline 94 % of control

CCN(CC)CC1CO1 (stereo unspecified)
inactive: dose: 7.5 mg/kg/injection, schedule: Q01DX009 (ip), vehicle: saline 102 % of control | dose: 15.0 mg/kg/injection, schedule: Q01DX009 (ip), vehicle: saline 97 % of control

CN(C)C(=S)Sc1ccc([N+](=O)[O-])cc1[N+](=O)[O-]
inactive: [3] 96 % of control | [4] 91 % of control | [5] 100 % of control | [6] 93 % of control | [7] 100 % of control | [8] 86 % of control

CC(=O)c1ccc(OC(=O)Nc2cc([N+](=O)[O-])ccc2F)cc1
inactive: [9] 98 % of control | [10] 101 % of control | [8] 95 % of control

N/N=C(\N)c1nn(C2OC(CO)C(O)C2O)c2ncnc(N)c12 (stereo unspecified)
inactive: dose: 60.0 mg/kg/injection, schedule: Q01DX005 (ip), vehicle: saline 116 % of control | dose: 100.0 mg/kg/injection, schedule: Q01DX005 (ip), vehicle: saline 124 % of control | dose: 200.0 mg/kg/injection, schedule: Q01DX005 (ip), vehicle: saline 113 % of control

O=C1C(c2ccccc2)=Nc2ccccc21
inactive: dose: 100.0 mg/kg/injection, schedule: Q04DX002 (ip), vehicle: saline with Tween-80 88 % of control | dose: 200.0 mg/kg/injection, schedule: Q04DX002 (ip), vehicle: saline with Tween-80 88 % of control | dose: 400.0 mg/kg/injection, schedule: Q04DX002 (ip), vehicle: saline with Tween-80 90 % of control

CN(Cc1ccccc1)C(=O)c1cccc([N+](=O)[O-])c1
inactive: [4] 98 % of control | [6] 100 % of control | [11] 95 % of control

O=C(Nc1cccc(S(=O)(=O)F)c1)/C(=C/c1ccc([N+](=O)[O-])cc1)c1ccccc1
inactive: [12] 89 % of control | [13] 99 % of control | [14] 99 % of control

O=C(O)c1c2ccccc2nc2ccccc12
inactive: dose: 50.0 mg/kg/injection, schedule: Q01DX001 (ip), vehicle: saline 102 % of control | [15] 111 % of control

CC(=O)OCCC/C(=C\c1ccc2ccccc2c1)[N+](=O)[O-]
inactive: [16] 98 % of control | [17] 93 % of control | [18] 89 % of control

CC(=O)c1ccc(-c2ccc(C(C)=O)cc2)cc1
inactive: dose: 100.0 mg/kg/injection, schedule: Q04DX002 (ip), vehicle: Klucel (hydroxypropylcellulose) (HPC) 97 % of control | dose: 200.0 mg/kg/injection, schedule: Q04DX002 (ip), vehicle: Klucel (hydroxypropylcellulose) (HPC) 101 % of control | dose: 400.0 mg/kg/injection, schedule: Q04DX002 (ip), vehicle: Klucel (hydroxypropylcellulose) (HPC) 97 % of control

CC(=O)OC1CCC2(C)C(=CC(=O)C3C2CCC2(C)C(C(C)CCCC(C)C)CCC32)C1 (stereo unspecified)
inactive: dose: 100.0 mg/kg/injection, schedule: Q01DX009 (sc), vehicle: steriod suspending solution 108 % of control | dose: 100.0 mg/kg/injection, schedule: Q04DX003 (sc), vehicle: steriod suspending solution 91 % of control | dose: 200.0 mg/kg/injection, schedule: Q01DX009 (sc), vehicle: steriod suspending solution 110 % of control | dose: 200.0 mg/kg/injection, schedule: Q04DX003 (sc), vehicle: steriod suspending solution 91 % of control | dose: 400.0 mg/kg/injection, schedule: Q01DX009 (sc), vehicle: steriod suspending solution 115 % of control | dose: 400.0 mg/kg/injection, schedule: Q04DX003 (sc), vehicle: steriod suspending solution 102 % of control

NC(=O)CCCCc1ccccc1
inactive: dose: 50.0 mg/kg/injection, schedule: Q01DX001 (ip), vehicle: saline with Tween-80 93 % of control | [3] 98 % of control | [5] 90 % of control

CCN(C(=O)C(F)(F)F)C1(c2ccc(Cl)cc2)CCCCC1SSSC1CCCCC1(c1ccc(Cl)cc1)N(CC)C(=O)C(F)(F)F (stereo unspecified)
inactive: [19] 106 % of control | [20] 87 % of control | [21] 98 % of control | [22] 89 % of control | [23] 108 % of control | [24] 89 % of control

C/C(=N/O)c1ccc[nH]1
inactive: dose: 100.0 mg/kg/injection, schedule: Q01DX001 (ip), vehicle: other 103 % of control | dose: 200.0 mg/kg/injection, schedule: Q01DX001 (ip), vehicle: other 103 % of control | dose: 400.0 mg/kg/injection, schedule: Q01DX001 (ip), vehicle: other 103 % of control

COC(=O)c1cc(=O)n(C)c2ccc(OC)cc12
inactive: [3] 101 % of control | [5] 103 % of control | [7] 109 % of control

CCCOc1ccc(C(=O)C(=O)c2ccccc2)cc1
inactive: [16] 97 % of control | [17] 100 % of control | [18] 97 % of control

NCC(N)C(=O)O (stereo unspecified)
inactive: [15] 94 % of control | dose: 200.0 mg/kg/injection, schedule: Q01DX001 (ip), vehicle: saline 97 % of control | dose: 400.0 mg/kg/injection, schedule: Q01DX001 (ip), vehicle: saline 94 % of control

CC(C)NNCCO
inactive: dose: 50.0 mg/kg/injection, schedule: Q01DX009 (ip), vehicle: saline 98 % of control | dose: 100.0 mg/kg/injection, schedule: Q01DX009 (ip), vehicle: saline 103 % of control | [1] 89 % of control | [2] 95 % of control

O=C(N/N=C/c1ccccc1Cl)c1ccccc1NC(=O)C1CC1
inactive: [4] 97 % of control | [6] 98 % of control | [11] 101 % of control

CN(C)C(=O)Sc1ccc([N+](=O)[O-])cc1
inactive: [20] 105 % of control | [22] 111 % of control | [24] 104 % of control

CCCCOC(=O)c1ccc(OC(=O)Nc2cccc(Cl)c2)cc1
inactive: [12] 94 % of control | [13] 92 % of control | [6] 102 % of control | [14] 90 % of control

O=C(O)CNC(CSCc1ccccc1)CSCc1ccccc1
inactive: dose: 25.0 mg/kg/injection, schedule: Q01DX009 (ip), vehicle: saline with Tween-80 101 % of control | dose: 50.0 mg/kg/injection, schedule: Q01DX009 (ip), vehicle: saline with Tween-80 106 % of control | [19] 90 % of control | [21] 97 % of control | [23] 103 % of control

[O-][n+]1ccc(CC(O)(C(F)(F)F)C(F)(F)F)cc1
inactive: dose: 25.0 mg/kg/injection, schedule: Q01DX009 (ip), vehicle: Klucel (hydroxypropylcellulose) (HPC) 93 % of control | dose: 50.0 mg/kg/injection, schedule: Q01DX009 (ip), vehicle: Klucel (hydroxypropylcellulose) (HPC) 92 % of control | [4] 97 % of control and 104 % of control | [9] 103 % of control | [10] 102 % of control | [8] 96 % of control
